Columns and labels:
AnGH71C [1] = biological target: T1, AnGH71C (Aspergillus nidulans, UniProt G5EB58); test: X-ray crystal structure (soak), […] Å; conditions: crystal soaked 2 min with saturating ligand; two glucose molecules in the binding cleft per protein molecule
T1 construct: gene ANIA_07349; putative signal peptide removed; N-terminal His6 tag, modified pET-28a with TEV site; recombinant E. coli BL21 (DE3); IMAC and gel filtration
T1 sequence (G5EB58 23-431): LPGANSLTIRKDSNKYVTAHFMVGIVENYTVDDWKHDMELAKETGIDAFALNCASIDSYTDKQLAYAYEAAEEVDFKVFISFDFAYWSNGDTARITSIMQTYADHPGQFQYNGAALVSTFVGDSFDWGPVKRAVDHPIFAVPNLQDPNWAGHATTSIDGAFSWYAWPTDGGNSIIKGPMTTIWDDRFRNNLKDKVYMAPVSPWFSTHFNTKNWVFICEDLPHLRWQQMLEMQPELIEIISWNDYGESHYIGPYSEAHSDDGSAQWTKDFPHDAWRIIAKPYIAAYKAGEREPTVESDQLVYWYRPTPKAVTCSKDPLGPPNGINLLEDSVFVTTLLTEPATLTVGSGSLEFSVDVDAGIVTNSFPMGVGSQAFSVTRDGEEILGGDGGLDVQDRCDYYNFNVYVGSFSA

AnGH71C [2] = biological target: T1, AnGH71C; test: X-ray crystal structure (soak), […] Å; format: binding

In the case of `OC[C@H]1OC(O)[C@H](O)[C@@H](O)[C@@H]1O` (stereo partly drawn) [glucose], the “X-ray crystal structure (soak), 1.37 Å” value (AnGH71C [1]) is reported as “glucose-soaked crystals each contain two glucose molecules located in the same position”.

In the case of `OC[C@H]1O[C@H](O[C@@H]2[C@@H](O)[C@@H](O[C@@H]3[C@@H](O)[C@@H](O[C@H]4[C@H](O)[C@@H](CO)OC(O)[C@@H]4O)O[C@H](CO)[C@H]3O)O[C@H](CO)[C@H]2O)[C@H](O)[C@@H](O)[C@@H]1O` (stereo partly drawn) [nigerotetraose], the “X-ray crystal structure (soak), 1.92 Å” value (AnGH71C [2]; crystal soaked 2 min with saturating ligand, active-site cleft, -4 to -1 subsites among others, α- and β-anomers) is reported as “Complexes of AnGH71C with glucose and nigerotriose/nigerotetraose were obtained by soaking crystals with ligand”.

For `OC[C@H]1O[C@H](O[C@@H]2[C@@H](O)[C@@H](O[C@H]3[C@H](O)[C@@H](CO)OC(O)[C@@H]3O)O[C@H](CO)[C@H]2O)[C@H](O)[C@@H](O)[C@@H]1O` (stereo partly drawn) [nigerotriose], the “X-ray crystal structure (soak), 1.92 Å” value (AnGH71C [2]; crystal soaked with nigerotetraose, nigerotriose in active-site cleft subsites, one extra on cleft surface in chain B) was “four protein molecules of the nigerotetraose-soaked crystals contain distinct combinations of nigerotriose and nigerotetraose”.

Reference: publication PMC12394665, “Structural and biochemical basis for activity of Aspergillus nidulans α-1,3-glucanases from glycoside hydrolase family 71” (Communications Biology, 2025)
